# According to US6472418B1, “Non-peptide NK1 receptors antagonists” (Warner-Lambert Company, priority 1998, dated 2002):
# Target: T1, Human NK1 Receptor (Homo sapiens, UniProt P25103)
# T1 construct: endogenous in cells; host or cells: Human lymphoma IM9 cells (whole cells)
# Assay: In Vitro Human NK1 Receptor Binding Assay ([125I]Bolton-Hunter substance P displacement, IM9 cells)
# Conditions: Human lymphoma IM9 cells, [125I]Bolton-Hunter substance P (0.05-0.1 nM), 50 min at 21° C.; Table 1; read-out: NK1 binding IC50
# Outline: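 Test compounds competed with 0.05-0.1 nM [125I]Bolton-Hunter substance P for binding to intact IM9 cells over 50 min at 21° C, pH 7.4 buffer with MnCl2 and peptidase inhibitors. […] [Sar9, Met(O2)11] substance P gave non-specific binding. Bound counts were measured after filtration and fitted iteratively.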
# T1 sequence (P25103 whole entry): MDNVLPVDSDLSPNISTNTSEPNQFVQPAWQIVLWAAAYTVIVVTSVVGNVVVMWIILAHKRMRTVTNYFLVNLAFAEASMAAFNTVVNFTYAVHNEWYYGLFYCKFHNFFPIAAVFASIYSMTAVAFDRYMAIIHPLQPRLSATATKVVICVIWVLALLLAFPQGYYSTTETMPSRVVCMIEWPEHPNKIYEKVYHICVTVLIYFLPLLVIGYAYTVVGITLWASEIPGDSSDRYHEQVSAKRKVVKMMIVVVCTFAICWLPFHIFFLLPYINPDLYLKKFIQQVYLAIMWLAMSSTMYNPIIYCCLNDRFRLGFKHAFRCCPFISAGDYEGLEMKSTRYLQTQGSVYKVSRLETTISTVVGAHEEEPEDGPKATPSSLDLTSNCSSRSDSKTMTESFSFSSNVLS
row,Compound,IC50 [nM]
1,"C[C@H](NC(=O)[C@@H](Cc1c[nH]c2ccccc12)NCc1cccc(O)c1)c1ccccc1 (relative stereo) [Example 17, 2-(3-Hydroxy-benzylamino)-3-(1H-indol-3-yl)-N-(1-phenyl-ethyl)-propionamide, [R-(R*,S*)]]",344
2,"C[C@H](NC(=O)[C@@H](Cc1c[nH]c2ccccc12)NCc1cc2ccccc2o1)c1ccccc1 (relative stereo) [Example 6, 2-[(Benzofuran-2-ylmethyl)-amino]-3-(1H-indol-3-yl)-N-(1-phenyl-ethyl)-propionamide, [R-(R*,S*)]]",0.7

# Same assay, conditions: Human lymphoma IM9 cells, [125I]Bolton-Hunter substance P; Table 3, array-synthesis products; read-out: IC50 (nM) hNK1
row,Compound,IC50 [nM]
1,"O=C(NCCSCc1ccccc1)C(Cc1c[nH]c2ccccc12)NCc1cc2ccccc2o1 (centres unmarked) [Example 296, 2-[(Benzofuran-2-ylmethyl)-amino]-N-(2-benzylsulfanyl-ethyl)-3-(1H-indol-3-yl)-propionamide]",1340
2,"CC(C)(NC(=O)C(Cc1c[nH]c2ccccc12)NCc1cc2ccccc2o1)c1ccccc1 (centres unmarked) [Example 265, 2-[(Benzofuran-2-ylmethyl)-amino]-3-(1H-indol-3-yl)-N-(1-methyl-1-phenyl-ethyl)-propionamide]",328
3,"O=C(NCc1ccc([N+](=O)[O-])o1)C(Cc1c[nH]c2ccccc12)NCc1cc2ccccc2o1 (centres unmarked) [Example 216, 2-[(Benzofuran-2-ylmethyl)-amino]-3-(1H-indol-3-yl)-N-(5-nitro-furan-2-ylmethyl)-propionamide]",> 10000
4,"CC(CNC(=O)C(Cc1c[nH]c2ccccc12)NCc1cc2ccccc2o1)c1ccccc1 (centres unmarked) [Example 233, 2-[(Benzofuran-2-ylmethyl)-amino]-3-(1H-indol-3-yl)-N-(2-phenyl-propyl)-propionamide]",2000
5,"CC(NC(=O)C(Cc1c[nH]c2ccccc12)NCc1cc2ccccc2o1)c1cccc2ccccc12 (centres unmarked) [Example 197, 2-[(Benzofuran-2-ylmethyl)-amino]-3-(1H-indol-3-yl)-N-(1-naphthalen-1-yl-ethyl)-propionamide]",933
6,"COC(=O)C(NC(=O)C(Cc1c[nH]c2ccccc12)NCc1cc2ccccc2o1)c1ccccc1 (centres unmarked) [Example 304, [2-[(Benzofuran-2-ylmethyl)-amino]-3-(1H-indol-3-yl)-propionylamino]-phenyl-acetic acid methyl ester]",43
7,"O=C(NCc1ccccc1Br)C(Cc1c[nH]c2ccccc12)NCc1cc2ccccc2o1 (centres unmarked) [Example 302, 2-[(Benzofuran-2-ylmethyl)-amino]-N-(2-bromo-benzyl)-3-(1H-indol-3-yl)-propionamide]",174
8,"O=C(NCc1ccccc1)C(Cc1c[nH]c2ccccc12)NCc1cc2ccccc2o1 (centres unmarked) [Example 254, 2-[(Benzofuran-2-ylmethyl)-amino]-N-benzyl-3-(1H-indol-3-yl)-propionamide]",22
9,"O=C(NCCc1cccs1)C(Cc1c[nH]c2ccccc12)NCc1cc2ccccc2o1 (centres unmarked) [Example 247, 2-[(Benzofuran-2-ylmethyl)-amino]-3-(1H-indol-3-yl)-N-(2-thiophen-2-yl-ethyl)-propionamide]",56
10,"O=C(NCc1ccc(F)cc1F)C(Cc1c[nH]c2ccccc12)NCc1cc2ccccc2o1 (centres unmarked) [Example 301, 2-[(Benzofuran-2-ylmethyl)-amino]-N-(2,4-difluoro-benzyl)-3-(1H-indol-3-yl)-propionamide]",53
11,"O=C(NCc1ccc(F)c(Cl)c1)C(Cc1c[nH]c2ccccc12)NCc1cc2ccccc2o1 (centres unmarked) [Example 229, 2-[(Benzofuran-2-ylmethyl)-amino]-N-(3-chloro-4-fluoro-benzyl)-3-(1H-indol-3-yl)-propionamide]",33
12,"CC(NC(=O)C(Cc1c[nH]c2ccccc12)NCc1cc2ccccc2o1)c1ccccc1 (centres unmarked) [Example 234, 2-[(Benzofuran-2-ylmethyl)-amino]-3-(1H-indol-3-yl)-N-(1-phenyl-ethyl)-propionamide]",75

# Same assay, conditions: Table 4; [125I]Bolton-Hunter substance P displacement, human IM9 cells; read-out: IC50 (nM) hNK1
row,Compound,IC50 [nM]
1,3-(1H-Indol-3-yl)-2-methyl-N-(1-phenyl-ethyl)-2-[4-(4-phenyl-piperidin-1-yl)-benzylamino]-propionamide [compound 334],> 10000
2,"CC(NC(=O)C(C)(Cc1c[nH]c2ccccc12)NCc1cccnc1)c1ccccc1 (centres unmarked) [compound 320, 3-(1H-Indol-3-yl)-2-methyl-N-(1-phenyl-ethyl)-2-[(pyridin-3-ylmethyl)-amino]-propionamide]",5970
3,Toluene-4-sulfonic acid 3-{[2-(1H-indol-3-yl)-1-methyl-1-(1-phenyl-ethylcarbamoyl)-ethylamino]-methyl}-phenyl ester [compound 342],5090
4,"CC(NC(=O)C(C)(Cc1c[nH]c2ccccc12)NCc1ccccn1)c1ccccc1 (centres unmarked) [compound 310, 3-(1H-Indol-3-yl)2-methyl-N-(1-phenyl-ethyl)-2-[(pyridin-2-ylmethyl)-amino]-propionamide]",3320

# Same assay, conditions: Table 5; [125I]Bolton-Hunter substance P displacement, human IM9 cells; read-out: IC50 (nM) hNK1
row,Compound,IC50 [nM]
1,CC(NC(=O)C(Cc1c[nH]c2ccccc12)NCC=Cc1ccc(OCc2ccccc2)cc1)c1ccccc1 (centres unmarked) [compound 378],932
2,CC(NC(=O)C(Cc1c[nH]c2ccccc12)NCc1ccoc1)c1ccccc1 (centres unmarked) [compound 402],881

# Same assay, conditions: human NK1 receptor, IM9 cells, [125I]Bolton-Hunter substance P; read-out: IC50 (nM) hNK1
row,Compound,IC50 [nM]
1,"CC(Cc1c[nH]c2ccccc12)(NCc1cc2ccccc2o1)C(=O)NCc1cc(F)ccc1F (centres unmarked) [compound 139, 2-[(Benzofuran-2-ylmethyl)-amino]-N-(2,5-difluoro-benzyl)-3-(1H-indol-3-yl)-2-methyl-propionamide]",99
2,"CC(Cc1c[nH]c2ccccc12)(NCc1cc2ccccc2o1)C(=O)NCC1CCNCC1 (centres unmarked) [compound 156, 2-[(Benzofuran-2-ylmethyl)-amino]-3-(1H-indol-3-yl)-2-methyl-N-piperidin-4-ylmethyl-propionamide]",> 10000
3,"COc1ccc(CNC(=O)C(C)(Cc2c[nH]c3ccccc23)NCc2cc3ccccc3o2)cc1F (centres unmarked) [compound 187, 2-[(Benzofuran-2-ylmethyl)-amino]-N-(3-fluoro-4-methoxy-benzyl)-3-(1H-indol-3-yl)-2-methyl-propionamide]",131
4,"CC(NC(=O)C(C)(Cc1c[nH]c2ccccc12)NCc1cc2ccccc2o1)c1cc(Cl)sc1Cl (centres unmarked) [compound 122, 2-[(Benzofuran-2-ylmethyl)-amino]-N-[1-(2,5-dichloro-thiophen-3-yl)-ethyl]-3-(1H-indol-3-yl)-2-methyl-propionamide]",442
5,"CC(Cc1n[nH]c2ccccc12)NC(=O)C(C)(Cc1c[nH]c2ccccc12)NCc1cc2ccccc2o1 (centres unmarked) [compound 120, 2-[(Benzofuran-2-ylmethyl)-amino]-N-[2-(1H-indazol-3-yl)-1-methyl-ethyl]-3-(1H-indol-3-yl)-2-methyl-propionamide]",2650
6,"CC(Cc1c[nH]c2ccccc12)(NCc1cc2ccccc2o1)C(=O)NCCc1ccc(O)c(O)c1 (centres unmarked) [compound 161, 2-[(Benzofuran-2-ylmethyl)-amino]-N-[2-(3,4-dihydroxy-phenyl)-ethyl]-3-(1H-indol-3-yl)-2-methyl-propionamide]",> 10000
7,"CC(Cc1c[nH]c2ccccc12)(NCc1cc2ccccc2o1)C(=O)NCC1CCCO1 (centres unmarked) [compound 138, 2-[(Benzofuran-2-ylmethyl)-amino]-3-(1H-indol-3-yl)-2-methyl-N-(tetrahydro-furan-2-ylmethyl)-propionamide]",4870
8,"CC(Cc1c[nH]c2ccccc12)(NCc1cc2ccccc2o1)C(=O)NCCN1CCC2CCCCC21 (centres unmarked) [compound 123, 2-[(Benzofuran-2-ylmethyl)-amino]-3-(1H-indol-3-yl)-2-methyl-N-[2-(octahydro-indol-1-yl)-ethyl]-propionamide]",> 10000
9,"CC(Cc1c[nH]c2ccccc12)(NCc1cc2ccccc2o1)C(=O)NCC1CCCCC1O (centres unmarked) [compound 49, 2-[(Benzofuran-2-ylmethyl)-amino]-N (2-hydroxy-cyclohexylmethyl)-3-(1H-indol-3-yl)-2-methyl-propionamide]",1550
10,"CC(Cc1c[nH]c2ccccc12)(NCc1cc2ccccc2o1)C(=O)NCc1ccccc1Cl (centres unmarked) [compound 189, 2-((Benzofuran-2-ylmethyl)-amino]-N-(2-chloro-benzyl)-3-(1H-indol-3-yl)-2-methyl-propionamide]",1130
11,"CC(Cc1c[nH]c2ccccc12)(NCc1cc2ccccc2o1)C(=O)NCc1cc(Br)ccc1O (centres unmarked) [compound 170, 2-[(Benzofuran-2-ylmethyl)-amino]-N-(5-bromo-2-hydroxy-benzyl)-3-(1H-indol-3-yl)-2-methyl-propionamide]",2380
12,"CC(Cc1c[nH]c2ccccc12)(NCc1cc2ccccc2o1)C(=O)NCc1ccc(N)c2ccccc12 (centres unmarked) [compound 141, N-(4-Amino-naphthalen-1-ylmethyl)-2-[(benzofuran-2-ylmethyl)-amino]-3-(1H-indol-3-yl)-2-methyl-propionamide]",2340
13,"CC(CNC(=O)C(C)(Cc1c[nH]c2ccccc12)NCc1cc2ccccc2o1)c1ccccc1 (centres unmarked) [compound 140, 2-[(Benzofuran-2-ylmethyl)-amino]-3-(1H-indol-3-yl)-2-methyl-N-(2-phenyl-propyl)-propionamide]",> 10000
14,"COc1cc(C(O)CNC(=O)C(C)(Cc2c[nH]c3ccccc23)NCc2cc3ccccc3o2)ccc1O (centres unmarked) [compound 153, 2-[(Benzofuran-2-ylmethyl)-amino]-N-[2-hydroxy-2-(4-hydroxy-3-methoxy-phenyl)-ethyl]-3-(1H-indol-3-yl)-2-methyl-propionamide]",3550
15,"CC(Cc1c[nH]c2ccccc12)(NCc1cc2ccccc2o1)C(=O)NC(Cc1ccccc1)c1ccccc1 (centres unmarked) [compound 75, 2-[(Benzofuran-2-ylmethyl)-amino]-N-(1,2-diphenyl-ethyl)-3-(1H-indol-3-yl)-2-methyl-propionamide]",> 10000
